Literature values as cited in patent publication US11135586B2, “Fluorinated pickering emulsion” (The Board of Trustees of the Leland Stanford Junior …, priority 2014, dated 2021).

Time without leakage in drops stabilized by surfactants: at least 36 hours
SMILES: O=C1OC2(c3ccc(O)cc3Oc3cc(O)ccc32)c2ccccc21 [fluorescein]
